Source: US20220402961A1 (BONTAC BIO-ENGINEERING(SHENZHEN) CO.,LTD, priority 2021, published 2022)

Settings: screened with a sieve (1.00 mm, No. 18), poured into glass graduated measuring cylinder, apparent volume
Procedure: The tops were scraped flat. The apparent volumes were recorded. The bulk densities were calculated.

NC(=O)c1ccc[n+]([C@@H]2O[C@H](COP(=O)([O-])O)[C@@H](O)[C@H]2O)c1 [Form 1, nicotinamide mononucleotide anhydrous crystal (form 1)]
Bulk density: 0.15 g/mL
